What was measured:
CYP3A4 = target: T1, CYP3A4 (Homo sapiens, UniProt P08684); assay: CYPs inhibition in pooled human liver microsomes, probe substrate Midazolam; type: in vitro ADME
T1 construct: 0.2 mg/mL human liver microsomes was pre-incubated in 180 μL reaction mixture; from tissue; host or cells: pooled human liver microsomes
Protocol: (§1) The inhibitory potential of test articles in pooled human liver microsomes was evaluated by the method using a cocktail of CYP substrates. […] For the negative control well, the test articles was replaced with 20 μL reaction buffer. After 10 min of pre-incubation at 37° C., 20 μL 10 mM NADPH cofactor was added to the pre-reaction mixtures. After another 10 min incubation, the reaction was stopped by adding 400 μL of ice cold acetonitrile solution containing tolbutamide and labetalol served as internal standards. The incubation mixtures were centrifuged at 4000×g for 20 min, and then the supernatants were analyzed by LC-MS/MS after dilution. SigmaPlot was applied to plot % control activity versus the test compound concentrations, and for non-linear regression analysis of the data. IC50 values of test articles were determined using 3-parameter logistic equation.

CYP2D6 = target: T2, CYP2D6 (Homo sapiens, UniProt P10635); assay: CYPs inhibition in pooled human liver microsomes, probe substrate Dextromethorphan; type: in vitro ADME
T2 construct: 0.2 mg/mL human liver microsomes was pre-incubated in 180 μL reaction mixture; from tissue; host or cells: pooled human liver microsomes
Protocol: as §1

CYP2C19 = target: T3, CYP2C19 (Homo sapiens, UniProt P33261); assay: CYPs inhibition in pooled human liver microsomes, probe substrate S-mephenytoin; type: in vitro ADME
T3 construct: 0.2 mg/mL human liver microsomes was pre-incubated in 180 μL reaction mixture; from tissue; host or cells: pooled human liver microsomes
Protocol: as §1

CYP1A2 = target: T4, CYP1A2 (Homo sapiens, UniProt P05177); assay: CYPs inhibition in pooled human liver microsomes, probe substrate Phenacetin; type: in vitro ADME
T4 construct: 0.2 mg/mL human liver microsomes was pre-incubated in 180 μL reaction mixture; from tissue; host or cells: pooled human liver microsomes
T4 sequence (P05177 1-516): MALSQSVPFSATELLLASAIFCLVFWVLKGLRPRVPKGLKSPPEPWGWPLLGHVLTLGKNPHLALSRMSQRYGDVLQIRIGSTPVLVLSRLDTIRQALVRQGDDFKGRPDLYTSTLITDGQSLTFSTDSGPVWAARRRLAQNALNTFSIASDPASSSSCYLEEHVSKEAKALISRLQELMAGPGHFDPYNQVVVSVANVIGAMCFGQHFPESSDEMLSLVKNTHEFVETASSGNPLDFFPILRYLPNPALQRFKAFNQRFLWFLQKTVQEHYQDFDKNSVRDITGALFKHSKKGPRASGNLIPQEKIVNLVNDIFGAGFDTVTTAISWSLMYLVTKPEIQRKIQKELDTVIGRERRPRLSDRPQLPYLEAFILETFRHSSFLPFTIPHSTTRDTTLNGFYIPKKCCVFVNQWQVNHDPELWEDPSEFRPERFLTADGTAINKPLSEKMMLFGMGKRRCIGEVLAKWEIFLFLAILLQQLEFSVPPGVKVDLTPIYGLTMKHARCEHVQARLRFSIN
Protocol: as §1

CYP2C9 = target: T5, CYP2C9 (Homo sapiens, UniProt P11712); assay: CYPs inhibition in pooled human liver microsomes, probe substrate Diclofenac; type: in vitro ADME
T5 construct: 0.2 mg/mL human liver microsomes was pre-incubated in 180 μL reaction mixture; from tissue; host or cells: pooled human liver microsomes
Protocol: as §1

JAK1 = target: T6, JAK1 (Homo sapiens, UniProt P23458); assay: JAK1 microfluidic kinase assay (Caliper EZ Reader II, FAM labeled peptide substrate); type: biochemical; settings: IC50 JAK1 (5 nM) (1 m MATP), JAK1 5 nM, 1 mM ATP
T6 construct: purchased Carna Biosciences
Summary of the method: (§2)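 Microfluidic mobility-shift kinase assay in 50 mM HEPES, 0.01% Brij35, 10 mM MgCl2, 2 mM DTT. IC50 values come from percent-inhibition curves normalised to uninhibited and enzyme-free controls.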

JAK2 = target: T7, JAK2 (Homo sapiens, UniProt O60674); assay: JAK2 microfluidic kinase assay (Caliper EZ Reader II, FAM labeled peptide substrate); type: biochemical
T7 construct: purchased Carna Biosciences
Summary of the method: as §2

TYK2 = target: T8, TYK2 (Homo sapiens, UniProt P29597); assay: TYK2 microfluidic kinase assay (Caliper EZ Reader II, FAM labeled peptide substrate); type: biochemical; settings: IC50 TYK2 ([…]) (1 mM ATP), TYK2 […], 1 mM ATP
T8 construct: purchased Carna Biosciences
Summary of the method: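 Assay run at ~10% substrate conversion in 50 mM HEPES pH buffer with Brij35, MgCl2 and DTT; compounds tested up to 5 μM in 3-fold dilutions at 1% DMSO. JAK1 reacted 120 min, JAK2 20 min, JAK2V617F 30 min, TYK2 10 min before an EDTA stop.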

[1] = Liver microsomes study, Phase I stability (RLM); type: in vitro ADME, rat; settings: pH 7.4; rat liver microsomes 0.5 mg/mL, 1 μM test article; read-out: RLM Clint
Summary of the method: (§3)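 Phase I turnover was followed by LC/MS/MS of parent compound remaining at 0, 10, 30 and 90 min in NADPH-fortified rat or human microsomes, with cold acetonitrile quench. Half-life and intrinsic clearance were derived from the log-linear depletion slope and the inverse protein concentration.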

JAK2V617F = target: T9, JAK2V617F (Homo sapiens, UniProt O60674, V617F); assay: JAK2V617F microfluidic kinase assay (Caliper EZ Reader II, FAM labeled peptide substrate); type: biochemical; settings: JAK2V617F 2.5 nM, 1 mM ATP
T9 construct: purchased Carna Biosciences
Summary of the method: as §2

[2] = Liver microsomes study, Phase I stability (HLM); type: in vitro ADME, human; settings: pH 7.4; human liver microsomes 0.5 mg/mL, 1 μM test article; read-out: HLM Clint
Summary of the method: as §3

[3] = IC50 JAK2 ([…]) (1 mM ATP), 1 mM ATP

T2 sequence (P10635 whole entry): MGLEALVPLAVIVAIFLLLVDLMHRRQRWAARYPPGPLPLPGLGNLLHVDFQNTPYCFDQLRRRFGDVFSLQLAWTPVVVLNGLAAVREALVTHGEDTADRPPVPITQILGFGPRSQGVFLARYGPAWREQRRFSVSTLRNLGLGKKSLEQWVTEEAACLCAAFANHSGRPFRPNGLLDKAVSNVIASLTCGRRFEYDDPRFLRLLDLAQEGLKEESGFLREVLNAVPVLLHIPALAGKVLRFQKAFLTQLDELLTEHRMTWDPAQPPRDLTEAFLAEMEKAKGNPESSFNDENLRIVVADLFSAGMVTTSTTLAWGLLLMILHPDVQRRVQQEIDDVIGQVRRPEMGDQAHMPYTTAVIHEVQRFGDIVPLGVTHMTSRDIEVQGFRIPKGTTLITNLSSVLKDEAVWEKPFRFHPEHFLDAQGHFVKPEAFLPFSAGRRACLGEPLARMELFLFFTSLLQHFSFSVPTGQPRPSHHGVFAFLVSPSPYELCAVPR
T6 sequence (P23458 whole entry): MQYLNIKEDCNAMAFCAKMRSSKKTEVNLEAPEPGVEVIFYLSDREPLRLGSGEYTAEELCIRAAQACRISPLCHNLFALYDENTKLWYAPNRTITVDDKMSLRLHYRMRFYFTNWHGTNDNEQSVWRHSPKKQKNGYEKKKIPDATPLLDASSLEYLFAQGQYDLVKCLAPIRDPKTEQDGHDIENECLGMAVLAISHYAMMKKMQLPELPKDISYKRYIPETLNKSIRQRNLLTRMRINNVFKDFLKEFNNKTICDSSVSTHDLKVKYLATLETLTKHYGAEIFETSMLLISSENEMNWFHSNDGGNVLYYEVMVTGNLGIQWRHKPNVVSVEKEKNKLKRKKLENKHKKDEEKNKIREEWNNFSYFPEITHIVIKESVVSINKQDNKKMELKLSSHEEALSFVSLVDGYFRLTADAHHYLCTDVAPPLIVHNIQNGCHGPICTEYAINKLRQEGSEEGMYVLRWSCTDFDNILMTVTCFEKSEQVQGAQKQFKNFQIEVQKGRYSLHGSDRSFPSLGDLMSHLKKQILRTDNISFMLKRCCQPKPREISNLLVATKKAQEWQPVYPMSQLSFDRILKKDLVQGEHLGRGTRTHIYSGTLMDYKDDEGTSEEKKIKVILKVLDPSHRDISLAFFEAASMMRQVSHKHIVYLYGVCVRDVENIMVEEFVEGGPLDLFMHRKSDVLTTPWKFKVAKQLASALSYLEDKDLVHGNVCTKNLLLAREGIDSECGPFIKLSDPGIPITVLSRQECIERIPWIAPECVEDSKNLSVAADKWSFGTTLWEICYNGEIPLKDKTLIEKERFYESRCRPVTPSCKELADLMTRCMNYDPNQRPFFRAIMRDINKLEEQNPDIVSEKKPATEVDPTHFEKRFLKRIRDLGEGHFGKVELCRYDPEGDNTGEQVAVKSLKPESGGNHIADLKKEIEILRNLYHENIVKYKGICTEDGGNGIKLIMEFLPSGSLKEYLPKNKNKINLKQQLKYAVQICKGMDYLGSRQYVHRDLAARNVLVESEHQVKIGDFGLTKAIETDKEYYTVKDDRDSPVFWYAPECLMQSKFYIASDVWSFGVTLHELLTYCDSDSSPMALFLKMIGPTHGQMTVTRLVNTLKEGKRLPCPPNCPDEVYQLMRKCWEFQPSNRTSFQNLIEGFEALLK
T8 sequence (P29597 whole entry): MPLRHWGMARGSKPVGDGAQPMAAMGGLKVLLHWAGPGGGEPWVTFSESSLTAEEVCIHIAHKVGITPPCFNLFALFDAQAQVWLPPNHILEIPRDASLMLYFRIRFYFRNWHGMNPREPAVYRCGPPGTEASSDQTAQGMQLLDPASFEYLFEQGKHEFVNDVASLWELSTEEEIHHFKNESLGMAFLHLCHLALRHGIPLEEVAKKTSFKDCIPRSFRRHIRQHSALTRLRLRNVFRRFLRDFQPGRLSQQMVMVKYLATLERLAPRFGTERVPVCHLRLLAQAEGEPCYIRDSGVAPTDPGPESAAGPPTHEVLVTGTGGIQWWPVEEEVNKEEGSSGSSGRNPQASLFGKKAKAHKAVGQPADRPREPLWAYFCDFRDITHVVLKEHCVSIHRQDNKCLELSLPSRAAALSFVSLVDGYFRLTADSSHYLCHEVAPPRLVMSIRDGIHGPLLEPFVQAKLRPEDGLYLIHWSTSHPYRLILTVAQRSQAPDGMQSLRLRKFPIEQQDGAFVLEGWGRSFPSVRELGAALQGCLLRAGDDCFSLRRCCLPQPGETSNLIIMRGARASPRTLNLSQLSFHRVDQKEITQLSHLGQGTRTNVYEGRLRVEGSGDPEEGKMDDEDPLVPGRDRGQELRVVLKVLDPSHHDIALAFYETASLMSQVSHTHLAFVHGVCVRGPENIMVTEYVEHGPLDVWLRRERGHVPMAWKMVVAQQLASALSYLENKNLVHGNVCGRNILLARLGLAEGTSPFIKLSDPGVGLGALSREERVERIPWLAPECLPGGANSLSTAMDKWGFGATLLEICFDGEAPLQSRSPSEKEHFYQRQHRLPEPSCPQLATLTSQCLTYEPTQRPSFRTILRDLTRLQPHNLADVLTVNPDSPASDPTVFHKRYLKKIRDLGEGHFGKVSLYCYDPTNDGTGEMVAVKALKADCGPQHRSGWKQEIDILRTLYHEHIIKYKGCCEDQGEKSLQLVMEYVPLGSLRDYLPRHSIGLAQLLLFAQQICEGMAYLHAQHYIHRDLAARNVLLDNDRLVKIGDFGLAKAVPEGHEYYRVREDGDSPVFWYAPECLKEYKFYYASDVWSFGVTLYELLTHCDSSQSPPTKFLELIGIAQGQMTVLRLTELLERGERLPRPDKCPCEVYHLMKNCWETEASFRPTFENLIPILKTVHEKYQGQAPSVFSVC
T5 sequence (P11712 whole entry): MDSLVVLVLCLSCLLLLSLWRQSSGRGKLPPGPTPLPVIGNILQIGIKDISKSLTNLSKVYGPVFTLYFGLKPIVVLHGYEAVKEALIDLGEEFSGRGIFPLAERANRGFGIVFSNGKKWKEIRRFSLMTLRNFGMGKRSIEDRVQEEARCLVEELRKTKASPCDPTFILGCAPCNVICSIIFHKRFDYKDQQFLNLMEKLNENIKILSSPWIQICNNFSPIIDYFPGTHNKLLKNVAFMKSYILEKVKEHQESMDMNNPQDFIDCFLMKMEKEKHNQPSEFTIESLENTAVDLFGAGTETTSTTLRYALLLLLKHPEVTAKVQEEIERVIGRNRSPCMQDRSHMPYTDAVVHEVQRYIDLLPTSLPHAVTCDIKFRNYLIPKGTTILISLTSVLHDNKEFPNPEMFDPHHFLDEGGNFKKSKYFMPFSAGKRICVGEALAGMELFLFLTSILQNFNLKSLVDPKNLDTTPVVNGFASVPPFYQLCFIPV
T7 sequence (O60674 whole entry): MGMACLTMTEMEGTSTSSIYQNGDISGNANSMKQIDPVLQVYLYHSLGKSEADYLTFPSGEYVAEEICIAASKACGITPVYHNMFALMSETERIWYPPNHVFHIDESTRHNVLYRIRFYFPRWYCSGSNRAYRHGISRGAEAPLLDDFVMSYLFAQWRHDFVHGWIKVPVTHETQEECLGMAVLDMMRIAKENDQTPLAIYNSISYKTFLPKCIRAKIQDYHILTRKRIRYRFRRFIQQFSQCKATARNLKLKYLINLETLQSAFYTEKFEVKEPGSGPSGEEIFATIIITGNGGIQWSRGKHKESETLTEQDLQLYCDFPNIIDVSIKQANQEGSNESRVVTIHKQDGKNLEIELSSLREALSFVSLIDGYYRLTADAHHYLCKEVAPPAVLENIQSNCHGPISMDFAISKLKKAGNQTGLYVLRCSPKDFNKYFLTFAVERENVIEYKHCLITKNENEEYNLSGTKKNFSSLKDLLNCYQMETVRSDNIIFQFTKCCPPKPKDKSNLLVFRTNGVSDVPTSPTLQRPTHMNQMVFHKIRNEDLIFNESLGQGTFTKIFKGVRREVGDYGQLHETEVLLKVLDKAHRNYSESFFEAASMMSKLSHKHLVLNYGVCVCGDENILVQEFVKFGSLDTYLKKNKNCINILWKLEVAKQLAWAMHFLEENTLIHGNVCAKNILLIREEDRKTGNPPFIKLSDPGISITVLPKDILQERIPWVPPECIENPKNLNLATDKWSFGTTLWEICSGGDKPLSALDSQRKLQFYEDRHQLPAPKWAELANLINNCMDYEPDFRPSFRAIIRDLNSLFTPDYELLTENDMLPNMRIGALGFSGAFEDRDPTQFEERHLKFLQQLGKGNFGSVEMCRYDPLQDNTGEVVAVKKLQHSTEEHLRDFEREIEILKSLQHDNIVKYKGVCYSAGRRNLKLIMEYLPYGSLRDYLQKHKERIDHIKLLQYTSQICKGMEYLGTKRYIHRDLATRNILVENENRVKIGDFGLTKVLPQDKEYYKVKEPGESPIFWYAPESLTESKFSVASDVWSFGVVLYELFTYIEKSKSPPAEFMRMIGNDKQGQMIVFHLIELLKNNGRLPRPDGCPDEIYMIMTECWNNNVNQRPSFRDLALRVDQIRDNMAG
T3 sequence (P33261 whole entry): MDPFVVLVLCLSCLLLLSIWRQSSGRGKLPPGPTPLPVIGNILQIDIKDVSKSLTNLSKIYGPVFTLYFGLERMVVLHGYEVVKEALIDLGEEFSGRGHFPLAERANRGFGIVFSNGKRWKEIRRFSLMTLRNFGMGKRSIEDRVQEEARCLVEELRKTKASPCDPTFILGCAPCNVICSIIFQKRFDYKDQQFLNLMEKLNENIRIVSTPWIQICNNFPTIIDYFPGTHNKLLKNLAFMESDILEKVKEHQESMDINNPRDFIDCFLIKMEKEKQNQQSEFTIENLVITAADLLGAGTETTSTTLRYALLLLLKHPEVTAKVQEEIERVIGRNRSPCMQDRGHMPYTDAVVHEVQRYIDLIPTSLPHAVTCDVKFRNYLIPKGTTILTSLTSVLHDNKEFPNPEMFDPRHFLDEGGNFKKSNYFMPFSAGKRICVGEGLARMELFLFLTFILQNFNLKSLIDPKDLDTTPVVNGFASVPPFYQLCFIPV
T9 sequence (O60674 whole entry V617F): as the sequence (O60674 whole entry) above, with V617F counted along it

SMILES	IC50 (CYP3A4)	IC50 (CYP2D6)	IC50 (CYP2C19)	IC50 (CYP1A2)	IC50 (CYP2C9)	IC50 (JAK1)	IC50 (JAK2; [3])	IC50 (TYK2)	microsomal CLint at 1 μM [1]	IC50 (JAK2V617F)	microsomal CLint at 1 μM [2]	IC50 (JAK2; IC50 JAK2 ([…]) (Km ATP), Km ATP)
COC[C@@H](C#N)NC(=O)c1ccc(-c2nc(Nc3cnn(C4CCN(C)CC4)c3)ncc2C)cc1 [Example 213, (R)—N-(1-Cyano-2-methoxyethyl)-4-(5-methyl-2-((1-(1-methylpiperidin-4-yl)-1H-pyrazol-4-yl)amino)pyrimidin-4-yl)benzamide]	> 50000 nM	19400 nM	> 50000 nM	> 50000 nM	> 50000 nM	4.61 nM	1.73 nM	17.4 nM				
CC(=O)N1CCC(n2cc(Nc3ncc(C)c(-c4ccc(C(=O)NCC#N)cc4)n3)cn2)CC1 [Example 20, 4-(2-((1-(1-Acetylpiperidin-4-yl)-1H-pyrazol-4-yl)amino)-5-methylpyrimidin-4-yl)-N-(cyanomethyl)benzamide]	> 50000 nM	> 50000 nM	> 50000 nM	> 50000 nM	> 50000 nM		0.3 nM		< 9.6 µL/min/mg	13.7 nM	< 9.6 µL/min/mg	0.25 nM
CC[C@@H](C#N)NC(=O)c1ccc(-c2nc(Nc3cnn(C4CCN(C)CC4)c3)ncc2Cl)cc1 [Example 88, (S)-4-(5-chloro-2-((1-(1-methylpiperidin-4-yl)-1H-pyrazol-4-yl)amino)pyrimidin-4-yl)-N-(1-cyanopropyl)benzamide]	32100 nM	41900 nM	24000 nM	> 50000 nM	45300 nM	0.82 nM	0.61 nM	6.68 nM	221 µL/min/mg	2.42 nM	22.8 µL/min/mg	
CC[C@@H](C#N)NC(=O)c1ccc(-c2nc(Nc3cnn(CCO)c3)ncc2C)cc1 [Example 172, (S)—N-(1-cyanopropyl)-4-(2-((1-(2-hydroxyethyl)-1H-pyrazol-4-yl)amino)-5-methylpyrimidin-4-yl)benzamide]	> 50000 nM	> 50000 nM	> 50000 nM	> 50000 nM	> 50000 nM	1.93 nM	24.6 nM	1.74 nM	14.8 µL/min/mg		5.05 µL/min/mg	
C[C@@H](C#N)NC(=O)c1ccc(-c2nc(Nc3cnn(C4CCN(C)CC4)c3)ncc2F)cc1 [Example 50, (S)—N-(1-cyanoethyl)-4-(5-fluoro-2-((1-(1-methylpiperidin-4-yl)-1H-pyrazol-4-yl)amino)pyrimidin-4-yl)benzamide]	> 50000 nM	> 50000 nM	> 50000 nM	> 50000 nM	> 50000 nM	91.2 nM	110 nM	218 nM		186 nM	8.92 µL/min/mg	
CC[C@@H](C#N)NC(=O)c1ccc(-c2nc(Nc3cnn(C(C)C(F)(F)F)c3)ncc2C)cc1 (stereo partly drawn) [Example 195, N—((S)-1-cyanopropyl)-4-(5-methyl-2-((1-(1,1,1-trifluoropropan-2-yl)-1H-pyrazol-4-yl)amino)pyrimidin-4-yl)benzamide]	> 50000 nM	30700 nM	> 50000 nM	> 50000 nM	> 50000 nM	3.61 nM	26.4 nM	5.42 nM		61.1 nM		

Reference: patent publication US12595253B2, “Benzamides of pyrazolylamino-pyrimidinyl derivatives, and compositions and methods thereof” (LYNK PHARMACEUTICALS CO. LTD., priority 2019, dated 2026)
